Data from patent US10449230B2, “Polymyxin derived cell penetrating scaffolds” (The Regents of the University of California, priority 2016, dated 2019).
Numbered stars: 1 amine (or outer) side, 2 acyl side, 3 side chain; on linkers, the order of the positions; unused ones are H or OH. Bridge positions count the residues as written; N and C are the ends. Square brackets hold non-standard residues; d marks the D form. Peptide text beside a SMILES is read from it. * marks the point of attachment. Biotin = O=C1N[C@H]2[C@H](CS[C@H]2CCCCC(=O)*)N1; X1 = O=C(CCCc1cn(CCOCCOCCOCCN[*:1])nn1)[*:2]; Agb = N=C(N)NCC[C@H](N)C(=O)O; Dab = NCC[C@H](N)C(=O)O

How the values were obtained:
HEK-293 cells = settings: HEK-293, 72 h, concentrations as high as 0.5 μM, FIG. 3B
Procedure: (§1) Cell titer blue was added and incubated an additional 4 hours. Cell viability was calculated by measuring the fluorescence intensity at 560/590.

CHO-K1 cells [1] = settings: CHO-K1, 72 h, concentrations as high as 0.5 μM, FIG. 3A
Procedure: as §1

CHO-K1 cells [2] = assay: Cytoplasmic delivery of streptavidin-saporin, CellTiter-Blue viability; assay type: cell-based, Chinese hamster; settings: CHO-K1, four days at 37° C., FIG. 8
Procedure: The biotinylated transporters were incubated with ST-Sap in a 5:1 molar ratio for 20 min at ambient temperature then diluted with F-12 cell culture medium to give final conjugate solutions. CHO-K1 and pgsA cells were incubated with 100 μL of the corresponding conjugate for 4 days at 37° C. under an atmosphere of 5% CO2. CellTiter-Blue (20 μL) was added to the medium and incubated for an additional 4 h to measure viability.
The ability of bPMB and bGPMB to deliver cargo to the cytosol was evaluated by conjugating the transporter to streptavidin-saporin (ST-SAP) and incubating the conjugate with CHO-K1 or pgsA cells at various concentrations. CHO-K1 cells were incubated with transporter-streptavidin-saporin conjugates at 37° C.
Saporin (no streptavidin) was incubated with bPMB or bGPMB for 20 min then diluted to final saporin concentrations and added to CHO-K1 cells. After four days, the number of viable cells was determined using CellTiter-Blue assay and the fluorescence intensity at was measured at 560/590 (FIG. 9A). pgsA cells were incubated with transporter-streptavidin-saporin conjugates at 37° C. After four days, the number of viable cells was determined using CellTiter-Blue and fluorescence intensity was measured at 560/590 (FIG. 9B).

CHO-K1 cells [3] = assay: Cellular uptake of transporter-ST-PE-Cy5 conjugates, flow cytometry (MFI); assay type: cell-based, Chinese hamster; settings: for Uptake of ST-PE-Cy5 incubated with transporter lacking the biotin moiety: CHO-K1, 37° C., 1 h, FIG. 4
Procedure: The polymyxin derivatives (2.5 μM in PBS) were incubated with ST-PE-Cy5 (0.5 μM in PBS) for 20 min at ambient temperature then diluted with F-12 cell culture medium to give final conjugate solutions.
Cells were plated onto 24-well plates (100 000 cells/well) and grown for 24 h to about 80% confluence. Cells were washed with PBS and incubated with 300 μL of the corresponding conjugate for 1 h at 37° C. under an atmosphere of 5% CO2. Cells were washed twice with PBS, detached with 50 μL of trypsin-EDTA for uptake studies or 100 μL Versene (EDTA) for binding studies, diluted with PBS containing 0.1% BSA, and analyzed by FACS. Cellular uptake was quantified by the mean fluorescence intensity; raw data was interpreted by using FlowJo v8.8.6.
Wild type CHO-K1 cells were incubated with the carrier-ST-PE-Cy5 conjugate for 1 h at 37° C., detached with trypsin/EDTA, and analyzed by flow cytometry (see, e.g., H. O'Dowd, B. Kim, P. Margolis, W. Wang, C. Wu, S. L. Lopez and J. Blais, Tetrahedron Lett., 2007, 48, 2003-2005). […] Cellular uptake of GPMB and PMB conjugated to ST-PE-Cy5 was measured in CHO-K1, HEK-293, and HEP-3B cells. The cells were incubated with conjugate (5 nM) at 37° C. for 1 h. Mean fluorescence intensity was measured by flow cytometry. The background signal from untreated cells was subtracted (FIG. 2).
The mixtures were then added to CHO-K1 cells and incubated at 37° C. for 1 h. Mean fluorescence intensity was measured by flow cytometry and the background signal from untreated cells was subtracted.

CHO-K1 cells [4] = settings: liposomes with 10 mol % carrier, 0.30, 0.50 or 0.70 μg/mL, 1 h at 37° C., FIG. 10
Procedure: A mixture (30 mg total) of DOPC, DOPE, and cholesterol (73:11:16) was dissolved in chloroform to a final volume of 1 mL and evaporated in a round flask and further dried under high vacuum overnight to form a thin lipid layer. The resulting film was hydrated for 15 min at 37° C. with 1 mL of PBS containing 100 μM Cy5. The mixture was sonicated for 30 s, subjected to six freeze/thaw cycles using a dry ice/acetone bath and a water bath at 37° C. Lastly, the suspension was extruded 17 times through a polycarbonate membrane (pore size 100 nm) at room temperature. Non-encapsulated dye was removed by gravitational gel filtration (Sephadex G-50). Lipid concentration was determined adapting the Stewart method. […] Unincorporated PMB or GPMB was removed via centrifuge gel filtration (Sephadex G-50) (see, e.g., D. W. Fry, J. C. White and I. D. Goldman, Anal. Biochem., 1978, 90, 809-815).
To examine the significance of the cyclic peptide as a delivery module, rather than the lipophilic tail, and the versatility of PMB and GPMB as transporters, liposomes containing the fluorescent Cy5 dye were mixed with 10 mol % PMB or GPMB. Uptake was evaluated using flow cytometry and the size and zeta potential of the liposomes were measured using dynamic light scattering (DLS) and are shown in Table 1 below. […]

Compound	Cytotoxicity (Cell-Titer Blue) (HEK-293 cells)	Cytotoxicity (Cell-Titer Blue) (CHO-K1 cells [1])	Delivery of cargo containing liposomes into wild-type CHO cells (CHO-K1 cells [4])	Uptake of ST-PE-Cy5 incubated with transporter lacking the biotin moiety (CHO-K1 cells [3])	further results
CC(C)C[C@@H]1NC(=O)[C@@H](Cc2ccccc2)NC(=O)[C@H](CCNC(=N)N)NC(=O)[C@@H](NC(=O)[C@H](CCNC(=N)N)NC(=O)[C@@H](NC(=O)[C@H](CCNC(=N)N)NC(=O)CCCc2cn(CCOCCOCCOCCNC(=O)CCCC[C@@H]3SC[C@@H]4NC(=O)N[C@@H]43)nn2)[C@@H](C)O)CCNC(=O)[C@H]([C@@H](C)O)NC(=O)[C@H](CCNC(=N)N)NC(=O)[C@H](CCNC(=N)N)NC1=O [bGPMB, biotinylated guanidinylated polymyxin B] (Biotin-[X1][Agb]T[Agb][Dab][Agb][dF]L[Agb][Agb]T; lactam 5-C)	no cytotoxicity	no cytotoxicity	–	–	–
CC(C)C[C@@H]1NC(=O)[C@@H](Cc2ccccc2)NC(=O)[C@H](CCN)NC(=O)[C@@H](NC(=O)[C@H](CCN)NC(=O)[C@@H](NC(=O)[C@H](CCN)NC(=O)CCCc2cn(CCOCCOCCOCCNC(=O)CCCC[C@@H]3SC[C@@H]4NC(=O)N[C@@H]43)nn2)[C@@H](C)O)CCNC(=O)[C@H]([C@@H](C)O)NC(=O)[C@H](CCN)NC(=O)[C@H](CCN)NC1=O [bPMB, biotinylated polymyxin B] (Biotin-[X1][Dab]T[Dab][Dab][Dab][dF]L[Dab][Dab]T; lactam 5-C)	no cytotoxicity	no cytotoxicity	–	–	–
Octaarginine [bArg8]	–	–	–	–	LD50 of transporter-streptavidin-saporin conjugate (CHO-K1 cells [2]): 3.1 nM; Cellular uptake of ST-PE-Cy5 conjugate compared with bPMB and bGPMB (CHO-K1 cells [3]; CHO-K1, 1 h at 37° C., MFI, FIG. 1A): approximately three-fold higher uptake
Polymyxin B [PMB, reference compound]	–	–	enhance delivery	No enhanced uptake	–
guanidinylated polymyxin B [GPMB]	–	–	enhance delivery	No enhanced uptake	–
